Results: US12103969B2, “Anti-Siglec antibody, pharmaceutical composition comprising the same, and uses thereof” (Academia Sinica, priority 2018, dated 2024)
Like-named read-outs stand apart in the source and are kept apart here.

Key:
[1] = molecular target: T1, hHBV and Siglec-3 interaction (Homo sapiens, UniProt P20138); experiment: Competition assay of hHBV and Siglec-3 interaction by sialoglycan; assay type: binding
T1 construct: human Siglec-3/-7 extracellular domain (ECD); made in house; host or cells: FreeStyle 293 Expression System (Invitrogen); HBsAg/HBV purified from CHB patients' blood
T1 sequence (P20138 18-259 limits assumed): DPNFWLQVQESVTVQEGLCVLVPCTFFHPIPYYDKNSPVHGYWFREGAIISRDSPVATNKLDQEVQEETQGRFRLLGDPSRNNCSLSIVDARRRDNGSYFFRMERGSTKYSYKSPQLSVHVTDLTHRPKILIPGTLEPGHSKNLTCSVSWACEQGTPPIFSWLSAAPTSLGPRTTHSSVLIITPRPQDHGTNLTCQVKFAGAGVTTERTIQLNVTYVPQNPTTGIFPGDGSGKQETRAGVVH
Protocol: (§1) Sialidase S and sialidase C were used to remove sialoglycan from HBV or sialoglycans, respectively. Sialidase S releases only α(2-3)-linked Neu5Ac, while Sialidase C release both α(2-3) and α(2-6)-linked Neu5Ac. The sialidase-treated substrates were used for HBV-Siglec-3 binding assay and competition assay.
Siglec ECD.Fc fusion proteins (5 μg) were coated on microtitre plates, followed by addition of HBsAg (100 ng) in the presence various concentrations of following glycans: Neu5Ac(α2-6)-Gal-GlcNAc, Neu5Ac(α2-3)-Gal-GlcNAc, and Gal-GlcNAc at 4° C. for 12 hours with Protein free blocking buffer. The sialidase-treated and un-treated sialyglycans were used for competition assay.

Siglec-3.Fc = molecular target: T2, Siglec-3.Fc (Homo sapiens, UniProt P20138); experiment: Bio-layer interferometry: Siglec-3.Fc and Neu5Ac(α2-6)GalGlcNAc glycans; assay type: binding
T2 construct: human Siglec-3/-7 extracellular domain (ECD); made in house; host or cells: FreeStyle 293 Expression System (Invitrogen)
T2 sequence (P20138 18-259 limits assumed): as above
Protocol: (§2) The interaction between human Siglec.Fc fusion protein and HBV was determined by the Bio-layer interferometry. In brief, the biosensor was immobilized with the Siglec.Fc fusion protein, and the binding between the Siglec.Fc and HBV was performed with running buffer (10 mM Tris HCl, 150 mM NaCl, 2 mM CaCl2, 2 mM MgCl2, pH 7.4) at room temperature. The valence between HBV and human Siglec-3 was determined, which correlates the strength of multivalent association with that of monovalent association as shown in the following: • KA, surf=F (S×10^−2)^n−1×(KA, mono)^n, where KA, surf is thereciprocal of KD (HBV and Siglec-3), KA, mono is the reciprocal of KD (Biantennary a2-6 linked sialylglycopeptide and Siglec-3); n is the number of valency number; F is the statistic factor in the system and S is equal to 40(Å), which is estimated according to crystal structure of Siglec-3 published on RCSB protein data bank (Number: 5J0B). Three individual BLI results were used to calculate out the n (number of valency). Generation and Characterization of Anti-Siglec mAbs and Selection of Antagonistic Antibody

hHBV [2] = experiment: Bio-layer interferometry: immobilized Fc-lectin and hHBV; assay type: binding, hepatitis B virus
Description: (§3) HBV was purified from blood samples of chronic hepatitis B (CHB) patients and HBV-transgenic mice, respectively. The protocol for HBV was purified by conventional method. HBV viral load was determinate by RT-PCR according to a standard HBV plasmid. HBsAg level was quantified by the HBsAg ELISA kit.
as §1, §2

mHBV = experiment: Bio-layer interferometry: immobilized Fc-lectin and mHBV; assay type: binding, hepatitis B virus; conditions: BLI, same condition as hHBV
Protocol: as §3, §2

hHBV [3] = experiment: Immunoprecipitation of hHBV by Siglec ECD.Fc fusion proteins; assay type: binding, hepatitis B virus; conditions: Western blot with anti-HBs
Protocol: HBV ([…]) was incubated with recombinant Siglec-3/-7/-9 ECD.Fc fusion proteins, respectively, for 16 hours at 4° C., followed by incubation with Sepharose-conjugated Protein A beads for immunoprecipitation. The samples were fractionated on 12% SDS-PAGE before blotting to PVDF membrane and incubated in blocking buffer (0.05% Tween 20 in TBS containing 5% BSA) at 4° C. overnight. Blots were incubated with […] polyclonal goat-anti-HBs Ab for 1 hour at room temperature, followed by incubation with Streptavidin-HRP (1:10000 dilution) for another 1 hour at room temperature, and were visualized by ECL.

[4] = untreated glycan, various concentrations

In the case of GalGlcNAc, the “inhibition of Siglec-3-HBV interaction” value [1, 4] is reported as “did not inhibit Siglec-3-HBV interaction”.
With Neu5Ac(α2-3)GalGlcNAc the “inhibition of Siglec-3-HBV interaction” value [1, 4] was “did not inhibit Siglec-3-HBV interaction”.
For Neu5Ac(α2-6)GalGlcNAc, the “Ka” value (Siglec-3.Fc; immobilized Siglec-3, cell wraps: value is the mantissa, factor × 10^0 printed in the lines below) was 5.44 M⁻¹ s⁻¹, the “Kd” value (Siglec-3.Fc; immobilized Siglec-3, cell wraps: value is the mantissa, factor × 10^−3 printed in the lines below) was 6.02 s⁻¹ and the Kd (Siglec-3.Fc; recombinant Siglec-3.Fc (dimeric), full value, unit from Table 1, read-out: equilibrium dissociation constant (KD)) was 1590 µM. For the same substance, the “inhibition of Siglec-3-HBV interaction” value ([1]; Sialidase C-treated glycan) was “lost its inhibitory effect” and the “inhibition of Siglec-3-HBV interaction” value [1, 4] was “inhibited Siglec-3-HBV interaction in a dose-dependent manner”.
“Siglec-3: recombinant human Siglec-3 extracellular domain (ECD).Fc fusion protein” was tested, and the “Ka” value (hHBV [2]; hHBV Sialidase S treated, cell wraps: value is the mantissa, factor × 10^5 printed in the lines below) was 7.11 M⁻¹ s⁻¹, the “Kd” value (hHBV [2]; hHBV Sialidase S treated, cell wraps: value is the mantissa, factor × 10^−4 printed in the lines below) was 2.73 s⁻¹ and the “Ka” value (hHBV [2]; hHBV Untreat, cell wraps: value is the mantissa, factor × 10^6 printed in the lines below) was 1.18 M⁻¹ s⁻¹. For the same substance, the “Kd” value (hHBV [2]; hHBV Untreat, cell wraps: value is the mantissa, factor × 10^−4 printed in the lines below) was 6.97 s⁻¹, the Kd (hHBV [2]; hHBV virions, full value, unit from Table 2, read-out: KD) was 0.000115 µM and the “Ka” value (hHBV [2]; hHBV, cell wraps: value is the mantissa, factor × 10^6 printed in the line below) was 3.11 M⁻¹ s⁻¹. For the same substance, the “Kd” value (hHBV [2]; hHBV, cell wraps: value is the mantissa, factor × 10^−4 printed in the line below) was 3.58 s⁻¹, the “binding between Siglec-3 and hHBV” value (hHBV [2]; α2-6 linked Neu5Ac removed from hHBV by sialidase C) was “abolished the binding” and the “binding to mHBV virions” value (mHBV) was “did not bind”. For the same substance, the “pull down of hHBV HBsAg (immunoprecipitation)” value (hHBV [3]) was “mainly pulled down glycosylated small HBsAg(h)”.
For “Siglec-9: recombinant Siglec-9 ECD.Fc fusion protein”, the “binding to hHBV” value (hHBV [2]; hHBV, BLI, same condition as Siglec-3) was “did not bind” and the “pull down of hHBV HBsAg (immunoprecipitation)” value (hHBV [3]) was “cannot pull down”.
